Laboratory results reported in patent US10221177B2 (HYDRA BIOSCIENCES, INC., priority 2014, dated 2019).

molecular target: human TRPA1 (Homo sapiens (Human), UniProt O75762); assay: In vitro inhibition of human TRPA1, whole cell patch configuration; assay type: cell-based; conditions: current activation 10 μM AITC, tested concentrations 320 pM to 3.2 μM, read-out: hTRPA1 IC50
Protocol: All currents were recorded in whole-cell configuration using EPC-9 and EPC-10 amplifiers and Patchmaster software (HEKA) or similar. […] The standard bath solution contained 150 mM NaCl, 10 mM HEPES, 10 mM glucose, 4.5 mM KCl, 1 mM EGTA, 3 mM MgCl2, with pH adjusted to 7.4 with NaOH. In some instances, 2 mM CaCl2 was added in place of EGTA and the concentration of MgCl2 was reduced to 1 mM.
Data were collected either by continuous recordings at −60 mV or by applying voltage ramps from a holding potential of −40 mV every 4 s. Continuous recordings were collected at 400 Hz and digitally filtered off-line at 10 Hz for presentation. Voltage ramps were applied from −100 mV or −80 mV to +100 mV or +80 mV over the course of 400 ms, and data were collected at 10 kHz and filtered at 2.9 kHz. Inward and outward currents were analyzed from the ramps at −80 and 80 mV, respectively. Liquid junction potential correction was not used.
Solutions were switched using a gravity-fed continuous focal perfusion system. To achieve rapid temperature changes, two temperature control, and perfusion systems were employed simultaneously. […] Temperatures were confirmed using a thermistor (Warner Instruments, TA-29), with temperatures at the recorded cell estimated to be within +/−2° C. of those reported.
The antagonist effects of compounds of Formula (I) against human TRPA1 (“hTRPA1”) in a whole cell patch configuration were evaluated using the in vitro assay described above.

human TRPA1, sequence (O75762 whole entry): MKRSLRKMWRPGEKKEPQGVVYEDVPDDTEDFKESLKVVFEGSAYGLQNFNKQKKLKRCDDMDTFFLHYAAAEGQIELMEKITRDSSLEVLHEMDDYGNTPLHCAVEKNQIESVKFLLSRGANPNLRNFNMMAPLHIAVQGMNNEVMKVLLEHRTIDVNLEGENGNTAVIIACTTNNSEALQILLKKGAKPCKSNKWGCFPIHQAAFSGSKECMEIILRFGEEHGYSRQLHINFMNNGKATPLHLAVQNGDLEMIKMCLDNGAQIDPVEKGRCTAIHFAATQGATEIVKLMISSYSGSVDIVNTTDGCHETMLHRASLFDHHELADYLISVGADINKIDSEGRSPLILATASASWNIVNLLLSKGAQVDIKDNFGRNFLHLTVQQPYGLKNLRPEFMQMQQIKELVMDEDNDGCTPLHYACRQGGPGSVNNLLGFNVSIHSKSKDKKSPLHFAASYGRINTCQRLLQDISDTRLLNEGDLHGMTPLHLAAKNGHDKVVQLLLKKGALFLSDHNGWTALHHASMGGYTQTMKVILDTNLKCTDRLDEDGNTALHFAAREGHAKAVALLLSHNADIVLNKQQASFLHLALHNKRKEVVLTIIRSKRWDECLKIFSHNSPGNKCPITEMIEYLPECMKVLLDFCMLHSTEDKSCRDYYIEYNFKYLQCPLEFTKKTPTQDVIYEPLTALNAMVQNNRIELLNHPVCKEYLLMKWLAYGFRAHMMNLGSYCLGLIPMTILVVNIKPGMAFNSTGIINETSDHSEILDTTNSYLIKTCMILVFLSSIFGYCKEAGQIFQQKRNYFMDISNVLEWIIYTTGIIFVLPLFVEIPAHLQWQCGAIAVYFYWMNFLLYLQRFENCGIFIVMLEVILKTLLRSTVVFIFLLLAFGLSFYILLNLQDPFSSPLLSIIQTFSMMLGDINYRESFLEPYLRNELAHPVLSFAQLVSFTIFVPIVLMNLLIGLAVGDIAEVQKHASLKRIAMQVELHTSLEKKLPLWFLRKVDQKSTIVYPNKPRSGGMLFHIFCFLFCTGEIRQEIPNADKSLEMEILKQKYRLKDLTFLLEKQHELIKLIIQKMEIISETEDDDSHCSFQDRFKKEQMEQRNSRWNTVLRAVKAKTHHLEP

Row | Compound | IC50
1 | CC(=O)Cn1c(=O)c2c(ncn2[C@@H](C)C(=O)Nc2cccc(-c3cnc(C(F)(F)F)nc3)n2)n(C)c1=O [Compound 4, (S)-2-(3-methyl-2,6-dioxo-1-(2-oxopropyl)-2,3-dihydro-1H-purin-7(6H)-yl)-N-(6-(2-(trifluoromethyl)pyrimidin-5-yl)pyridin-2-yl)propanamide] | 25 nM
2 | CC(=O)Cn1c(=O)c2c(ncn2[C@@H](C)C(=O)Nc2cncc(-c3cnc(C(F)(F)F)nc3)n2)n(C)c1=O [Compound 6, (S)-2-(3-methyl-2,6-dioxo-1-(2-oxopropyl)-2,3-dihydro-1H-purin-7(6H)-yl)-N-(6-(2-(trifluoromethyl)pyrimidin-5-yl)pyrazin-2-yl)propanamide] | 39 nM
3 | CC(C(=O)Nc1cccc(-c2cnc(C(F)(F)F)nc2)n1)n1cnc2c1c(=O)n(CC#N)c(=O)n2C (centres unmarked) [Compound 10, 2-(1-(cyanomethyl)-3-methyl-2,6-dioxo-2,3-dihydro-1H-purin-7(6H)-yl)-N-(6-(2-(trifluoromethyl)pyrimidin-5-yl)pyridin-2-yl)propanamide] | 24 nM
4 | C[C@@H](C(=O)Nc1cccc(-c2cnc(N3CC4CC4C3)nc2)n1)n1cnc2c1c(=O)n(CC#N)c(=O)n2C (stereo partly drawn) [Compound 11, (2S)—N-(6-(2-(3-azabicyclo[3.1.0]hexan-3-yl)pyrimidin-5-yl)pyridin-2-yl)-2-(1-(cyanomethyl)-3-methyl-2,6-dioxo-2,3-dihydro-1H-purin-7(6H)-yl)propanamide] | 5 nM
5 | C[C@@H](C(=O)Nc1cncc(-c2cnc(N3CC4CC4C3)nc2)n1)n1cnc2c1c(=O)n(CC#N)c(=O)n2C (some centres unmarked) [Compound 12] | 7 nM
6 | CCC(=O)Cn1c(=O)c2c(ncn2[C@@H](C)C(=O)Nc2cncc(-c3cnc(N4CC5CC5C4)nc3)n2)n(C)c1=O (stereo partly drawn) [Compound 13, (2S)—N-(6-(2-(3-azabicyclo[3.1.0]hexan-3-yl)pyrimidin-5-yl)pyrazin-2-yl)-2-(3-methyl-2,6-dioxo-1-(2-oxobutyl)-2,3-dihydro-1H-purin-7(6H)-yl)propanamide] | 8 nM
7 | CC(=O)Cn1c(=O)c2c(ncn2[C@@H](C)C(=O)Nc2csc(-c3cnc(N4CCC[C@H]4C(F)(F)F)nc3)n2)n(C)c1=O [Compound 16, (S)-2-(3-methyl-2,6-dioxo-1-(2-oxopropyl)-2,3-dihydro-1H-purin-7(6H)-yl)-N-(2-(2-((S)-2-(trifluoromethyl)pyrrolidin-1-yl)pyrimidin-5-yl)thiazol-4-yl)propanamide] | 2 nM
8 | CCC(=O)Cn1c(=O)c2c(ncn2C(C)C(=O)Nc2ccnc(-c3cnc(N4CC5CC5C4)nc3)n2)n(C)c1=O (centres unmarked) [Compound 17, N-(2′-(3-azabicyclo[3.1.0]hexan-3-yl)-2,5′-bipyrimidin-4-yl)-2-(3-methyl-2,6-dioxo-1-(2-oxobutyl)-2,3-dihydro-1H-purin-7(6H)-yl)propanamide] | 8 nM
9 | CC(=O)Cn1c(=O)c2c(ncn2[C@@H](C)C(=O)Nc2csc(-c3ccc(Cl)c(Cl)c3)n2)n(C)c1=O [Compound 20, (S)—N-(2-(3,4-dichlorophenyl)thiazol-4-yl)-2-(3-methyl-2,6-dioxo-1-(2-oxopropyl)-2,3-dihydro-1H-purin-7(6H)-yl)propanamide] | 2 nM
10 | C[C@@H](C(=O)Nc1cncc(-c2cnc(C(F)(F)F)nc2)n1)n1cnc2c1c(=O)n(CC#N)c(=O)n2C [Compound 22, (S)-2-(1-(cyanomethyl)-3-methyl-2,6-dioxo-2,3-dihydro-1H-purin-7(6H)-yl)-N-(6-(2-(trifluoromethyl)pyrimidin-5-yl)pyrazin-2-yl)propanamide] | 203 nM
11 | Cc1cc(Cn2c(=O)c3c(ncn3[C@@H](C)C(=O)Nc3cccc(-c4ccc(C(F)(F)F)cc4)n3)n(C)c2=O)no1 [Compound 23] | 5 nM
12 | CC(C(=O)Nc1ccnc(-c2cnc(N3CC4CC4C3)nc2)n1)n1cnc2c1c(=O)n(CC#N)c(=O)n2C (centres unmarked) [Compound 24, N-(2′-(3-azabicyclo[3.1.0]hexan-3-yl)-2,5′-bipyrimidin-4-yl)-2-(1-(cyanomethyl)-3-methyl-2,6-dioxo-2,3-dihydro-1H-purin-7(6H)-yl)propanamide] | 10 nM
13 | CCC(=O)Cn1c(=O)c2c(ncn2[C@@H](C)C(=O)Nc2cccc(-c3cnc(N4CC5C(C4)C5(F)F)nc3)n2)n(C)c1=O (stereo partly drawn) [Compound 26, (2S)—N-(6-(2-(6,6-difluoro-3-azabicyclo[3.1.0]hexan-3-yl)pyrimidin-5-yl)pyridin-2-yl)-2-(3-methyl-2,6-dioxo-1-(2-oxobutyl)-2,3-dihydro-1H-purin-7(6H)-yl)propanamide] | 1 nM
14 | CCN(CC)c1ncc(-c2cccc(NC(=O)[C@H](C)n3cnc4c3c(=O)n(Cc3cc(C)on3)c(=O)n4C)n2)cn1 [Compound 27, (S)—N-(6-(2-(diethylamino)pyrimidin-5-yl)pyridin-2-yl)-2-(3-methyl-1-((5-methylisoxazol-3-yl)methyl)-2,6-dioxo-2,3-dihydro-1H-purin-7(6H)-yl)propanamide] | 2 nM

Next, values leading:

Row | IC50 | Compound
15 | 28 nM | C[C@@H](C(=O)Nc1cccc(-c2ccc(C(F)(F)F)nc2)n1)n1cnc2c1c(=O)n(Cc1ccccn1)c(=O)n2C [Compound 1, (2S)-2-(3-methyl-2,6-dioxo-1-(pyridin-2-ylmethyl)-1,2,3,6-tetrahydropurin-7-yl)-N-(6-(6-(trifluoromethyl)pyridin-3-yl)pyridin-2-yl)propanamide]
16 | 21 nM | CC(=O)Cn1c(=O)c2c(ncn2[C@@H](C)C(=O)Nc2cccc(-c3ccc(C(F)(F)F)nc3)n2)n(C)c1=O [Compound 2, (S)-2-(3-methyl-2,6-dioxo-1-(2-oxopropyl)-2,3-dihydro-1H-purin-7(6H)-yl)-N-(6′-(trifluoromethyl)-[2,3′-bipyridin]-6-yl)propanamide]
17 | 49 nM | CC(=O)Cn1c(=O)c2c(ncn2[C@@H](C)C(=O)Nc2cncc(-c3ccc(C(F)(F)F)nc3)n2)n(C)c1=O [Compound 3, (S)-2-(3-methyl-2,6-dioxo-1-(2-oxopropyl)-2,3-dihydro-1H-purin-7(6H)-yl)-N-(6-(6-(trifluoromethyl)pyridin-3-yl)pyrazin-2-yl)propanamide]
18 | 39 nM | C[C@@H](C(=O)Nc1cccc(-c2cnc(C(F)(F)F)nc2)n1)n1cnc2c1c(=O)n(Cc1ccccn1)c(=O)n2C [Compound 5, (S)-2-(3-methyl-2,6-dioxo-1-(pyridin-2-ylmethyl)-2,3-dihydro-1H-purin-7(6H)-yl)-N-(6-(2-(trifluoromethyl)pyrimidin-5-yl)pyridin-2-yl)propanamide]
19 | 44 nM | C[C@@H](C(=O)Nc1cncc(-c2cnc(C(F)(F)F)nc2)n1)n1cnc2c1c(=O)n(Cc1ccccn1)c(=O)n2C [Compound 8, (S)-2-(3-methyl-2,6-dioxo-1-(pyridin-2-ylmethyl)-2,3-dihydro-1H-purin-7(6H)-yl)-N-(6-(2-(trifluoromethyl)pyrimidin-5-yl)pyrazin-2-yl)propanamide]
20 | 59 nM | C[C@@H](C(=O)Nc1cncc(-c2ccc(C(F)(F)F)nc2)n1)n1cnc2c1c(=O)n(Cc1ccccn1)c(=O)n2C [Compound 9, (2S)-2-(3-methyl-2,6-dioxo-1-(pyridin-2-ylmethyl)-1,2,3,6-tetrahydropurin-7-yl)-N-(6-(6-(trifluoromethyl)pyridin-3-yl)pyrazin-2-yl)propanamide]
